Reference: patent US20080070867A1, “2-Imidazolone and 2-Imidazolidinone Heterocyclic Inhibitors of Tyrosine Phosphatases” (Metabasis Therapeutics, Inc., priority 2005, published 2008)

Biological target: T1, Human recombinant PTP-1B (Homo sapiens, UniProt P18031)
T1 construct: Human recombinant PTP-1B, containing amino acids 1-321, fused to GST enzyme; GST (glutathione S-transferase)
T1 sequence (P18031 1-321): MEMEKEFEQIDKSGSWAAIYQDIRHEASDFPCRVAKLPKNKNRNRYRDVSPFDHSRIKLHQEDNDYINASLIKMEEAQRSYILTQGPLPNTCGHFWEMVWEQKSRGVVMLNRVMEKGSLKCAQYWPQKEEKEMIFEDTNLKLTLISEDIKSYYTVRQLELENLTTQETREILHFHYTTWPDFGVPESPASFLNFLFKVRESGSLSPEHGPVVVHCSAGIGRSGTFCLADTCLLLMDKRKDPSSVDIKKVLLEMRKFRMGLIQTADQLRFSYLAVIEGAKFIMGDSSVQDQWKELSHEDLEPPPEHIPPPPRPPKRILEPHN
Experiment: Assay for PTP-1B Activity (pNPP substrate)
Assay type: biochemical
Settings: human recombinant PTP-1B (1-321) GST fusion, 2 mM pNPP, pH 7.4, 30° C., 20 min; read-out: Activity Code (IC50 range)
Source text: The activity of the compounds as modulators of protein tyrosine phosphatase, including PTP-1B, may be measured in standard assays (see, e.g., Examples 41 and 42). Briefly, the assay described herein employs human recombinant PTP-1B and a pNPP substrate in a rescue assay.
Assay for PTP-1B Activity
Enzyme: Human recombinant PTP-1B, containing amino acids 1-321, fused to GST enzyme (glutathione S-transferase) purified by affinity chromatography (Huyer et al, 1997, J. Biol. Chem., 272, 843-852).
pNPP: p-Nitrophenyl Phosphate (Calbiochem)
Assay Buffer: 50 mM HEPES (pH 7.4), 100 mM NaCl, 2 mM EDTA, 3 mM DTT
(5×) pNPP substrate: 10 mM pNPP in assay buffer
Enzyme: 1 mg/ml PTP1B (1-321), dilute 1:200 in assay buffer
Assay buffer: 50 mM HEPES (pH 7.4), 100 mM NaCl, 2 mM EDTA, 3 mM DTT
Enzyme dilution buffer: 50 mM HEPES (pH 7.4), 100 mM NaCl, 2 mM EDTA, 3 mM DTT
Substrate 198 mM p-Nitrophenyl Phosphate (pNPP) store at 4° C.
The assay was carried out at 30° C. in 96 well plates. The reaction mixture in 60 ul contained 50 mM HEPES (pH 7.4), 100 mM NaCl, 2 mM EDTA, 3 mM DTT, and 2 mM p-Nitrophenyl Phosphate (pNPP). 5 ul of the test compound (inhibitor) dissolved in DMSO or DMSO alone for control was added to each well and the plate was mixed for 2 min. The reaction was initiated by adding 20 ul of diluted PTP1B (5 ng/ul in 50 mM HEPES (pH 7.4), 100 mM NaCl, 2 mM EDTA, 3 mM DTT). After 20 min at 30° C., the enzyme reaction was terminated by adding 100 ul of 2 M K2CO3 to each well. The phosphatase activity was detected by using Victor II plate reader (Wallac) with absorbance detection at 405 nm. All the assays were done at least in duplicate. The initial rate of pNP is plotted against the concentration of inhibitor.

`O=c1n(Cc2ccccc2)cc(-c2ccc(Cl)cc2)n1Cc1ccc(C(F)(F)P(=O)(O)O)c(Br)c1` [Compound 26, ({4-[3-Benzyl-5-(4-chloro-phenyl)-2-oxo-2,3-dihydro-imidazol-1-ylmethyl]-2-bromo-phenyl}-difluoro-methyl)-phosphonic acid] and `NC(=O)c1ccc(-c2cn(Cc3ccccc3)c(=O)n2Cc2ccc(C(F)(F)P(=O)(O)O)c(Br)c2)cc1` [Compound 27, ({4-[3-Benzyl-5-(4-carbamoyl-phenyl)-2-oxo-2,3-dihydro-imidazol-1-ylmethyl]-2-bromo-phenyl}-difluoro-methyl)-phosphonic acid] fall in the same range of IC50: 0.1 to 0.249 µM for the first, 0.1 to 0.249 µM for the second.

`CNC(=O)c1ccc(-c2cn(Cc3ccccc3)c(=O)n2Cc2ccc(C(F)(F)P(=O)(O)O)c(Br)c2)cc1` [Compound 28, ({4-[3-Benzyl-5-(4-methylcarbamoyl-phenyl)-2-oxo-2,3-dihydro-imidazol-1-ylmethyl]-2-bromo-phenyl}-difluoro-methyl)-phosphonic acid] and `O=c1n(Cc2ccccc2)cc(-c2ccccc2)n1Cc1ccc(C(F)(F)P(=O)(O)O)c(Br)c1` [Compound 29, {[4-(3-Benzyl-2-oxo-5-phenyl-2,3-dihydro-imidazol-1-ylmethyl)-2-bromo-phenyl]-difluoro-methyl}-phosphonic acid] fall in the same range of IC50: 0.25 to 2.5 µM for the first, 0.25 to 2.5 µM for the second.

`O=c1n(Cc2ccccc2)cc(-c2ccc3c(c2)OCCO3)n1Cc1ccc(C(F)(F)P(=O)(O)O)c(Br)c1` [Compound 30, ({4-[3-Benzyl-5-(2,3-dihydro-benzo[1,4]dioxin-6-yl)-2-oxo-2,3-dihydro-imidazol-1-ylmethyl]-2-bromo-phenyl}-difluoro-methyl)-phosphonic acid] and `O=c1n(Cc2ccccc2)cc(-c2ccc3c(c2)CCCC3)n1Cc1ccc(C(F)(F)P(=O)(O)O)c(Br)c1` [Compound 49, ({4-[3-Benzyl-2-oxo-5-(5,6,7,8-tetrahydro-naphthalen-2-yl)-2,3-dihydro-imidazol-1-ylmethyl]-2-bromo-phenyl}-difluoro-methyl)-phosphonic acid] fall in the same range of IC50: 0.25 to 2.5 µM for the first, 0.25 to 2.5 µM for the second.

`N#Cc1cccc(-c2cn(Cc3ccccc3)c(=O)n2Cc2ccc(C(F)(F)P(=O)(O)O)c(Br)c2)c1` [Compound 31, ({4-[3-Benzyl-5-(3-cyano-phenyl)-2-oxo-2,3-dihydro-imidazol-1-ylmethyl]-2-bromo-phenyl}-difluoro-methyl)-phosphonic acid] and `O=c1n(Cc2ccccc2)cc(-c2ccsc2)n1Cc1ccc(C(F)(F)P(=O)(O)O)c(Br)c1` [Compound 39, {[4-(3-Benzyl-2-oxo-5-thiophen-3-yl-2,3-dihydro-imidazol-1-ylmethyl)-2-bromo-phenyl]-difluoro-methyl}-phosphonic acid] fall in the same range of IC50: 0.25 to 2.5 µM for the first, 0.25 to 2.5 µM for the second.

`CS(=O)(=O)c1ccc(-c2cn(Cc3cccc(N)c3)c(=O)n2Cc2ccc(C(F)(F)P(=O)(O)O)c(Br)c2)cc1` [Compound 32, ({4-[3-(3-Amino-benzyl)-5-(4-methanesulfonyl-phenyl)-2-oxo-2,3-dihydro-imidazol-1-ylmethyl]-2-bromo-phenyl}-difluoro-methyl)-phosphonic acid] and `CC(=O)Nc1cccc(Cn2cc(-c3ccc(S(C)(=O)=O)cc3)n(Cc3ccc(C(F)(F)P(=O)(O)O)c(Br)c3)c2=O)c1` [Compound 40, ({4-[3-(3-Acetylamino-benzyl)-5-(4-methanesulfonyl-phenyl)-2-oxo-2,3-dihydro-imidazol-1-ylmethyl]-2-bromo-phenyl}-difluoro-methyl)-phosphonic acid] cannot be ordered by IC50: under 0.099 µM for the first, under 0.099 µM for the second.

`O=c1n(CC2CC2)cc(-c2ccccc2)n1Cc1ccc(C(F)(F)P(=O)(O)O)c(Br)c1` [Compound 33, {[2-Bromo-4-(3-cyclopropylmethyl-2-oxo-5-phenyl-2,3-dihydro-imidazol-1-ylmethyl)-phenyl]-difluoro-methyl}-phosphonic acid] and `O=c1n(Cc2ccccc2)cc(-c2cccs2)n1Cc1ccc(C(F)(F)P(=O)(O)O)c(Br)c1` [Compound 44, {[4-(3-Benzyl-2-oxo-5-thiophen-2-yl-2,3-dihydro-imidazol-1-ylmethyl)-2-bromo-phenyl]-difluoro-methyl}-phosphonic acid] fall in the same range of IC50: 0.25 to 2.5 µM for the first, 0.25 to 2.5 µM for the second.

`COc1cc(Cn2cc(-c3ccc(C(=O)O)cc3)n(Cc3ccc(C(F)(F)P(=O)(O)O)c(Br)c3)c2=O)cc(OC)c1` [Compound 34, 4-[3-[3-Bromo-4-(difluoro-phosphono-methyl)-benzyl]-1-(3,5-dimethoxy-benzyl)-2-oxo-2,3-dihydro-1H-imidazol-4-yl]-benzoic acid] and `O=C(O)c1ccc(-c2cn(Cc3ccccn3)c(=O)n2Cc2ccc(C(F)(F)P(=O)(O)O)c(Br)c2)cc1` [Compound 36, 4-{3-[3-Bromo-4-(difluoro-phosphono-methyl)-benzyl]-2-oxo-1-pyridin-2-ylmethyl-2,3-dihydro-1H-imidazol-4-yl}-benzoic acid] fall in the same range of IC50: 0.25 to 2.5 µM for the first, 0.25 to 2.5 µM for the second.

First: O=C(O)c1ccc(-c2cn(C3CC3)c(=O)n2Cc2ccc(C(F)(F)P(=O)(O)O)c(Br)c2)cc1 [Compound 35, 4-{3-[3-Bromo-4-(difluoro-phosphono-methyl)-benzyl]-1-cyclopropyl-2-oxo-2,3-dihydro-1H-imidazol-4-yl}-benzoic acid]
Second: O=C(O)/C=C/c1ccc(-c2cn(C3CC3)c(=O)n2Cc2ccc(C(F)(F)P(=O)(O)O)c(Br)c2)cc1 [Compound 46, 3-(4-{3-[3-Bromo-4-(difluoro-phosphono-methyl)-benzyl]-1-cyclopropyl-2-oxo-2,3-dihydro-1H-imidazol-4-yl}-phenyl)-acrylic acid]
The IC50 of the first is higher: 0.25 to 2.5 µM for the first, under 0.099 µM for the second.

Compared with `CCOC(=O)n1cc(-c2ccc(C(=O)OC)cc2)n(Cc2ccc(C(F)(F)P(=O)(O)O)c(Br)c2)c1=O` [Compound 37, 3-[3-Bromo-4-(difluoro-phosphono-methyl)-benzyl]-4-(4-methoxycarbonyl-phenyl)-2-oxo-2,3-dihydro-imidazole-1-carboxylic acid ethyl ester], `CCn1cc(-c2ccc(C(=O)OC)cc2)n(Cc2ccc(C(F)(F)P(=O)(O)O)c(Br)c2)c1=O` [Compound 47, 4-{3-[3-Bromo-4-(difluoro-phosphono-methyl)-benzyl]-1-ethyl-2-oxo-2,3-dihydro-1H-imidazol-4-yl}-benzoic acid methyl ester] is lower in IC50: 0.25 to 2.5 µM for the first, 0.1 to 0.249 µM for the second.

`COC(=O)c1ccc(-c2cn(C)c(=O)n2Cc2ccc(C(F)(F)P(=O)(O)O)c(Br)c2)cc1` [Compound 38, 4-{3-[3-Bromo-4-(difluoro-phosphono-methyl)-benzyl]-1-methyl-2-oxo-2,3-dihydro-1H-imidazol-4-yl}-benzoic acid methyl ester] and `Cn1cc(-c2ccc(C(=O)O)cc2)n(Cc2ccc(C(F)(F)P(=O)(O)O)c(Br)c2)c1=O` [Compound 42, 4-{3-[3-Bromo-4-(difluoro-phosphono-methyl)-benzyl]-1-methyl-2-oxo-2,3-dihydro-1H-imidazol-4-yl}-benzoic acid] fall in the same range of IC50: 0.25 to 2.5 µM for the first, 0.25 to 2.5 µM for the second.

First: COC(=O)c1ccc(-c2c[nH]c(=O)n2Cc2ccc(C(F)(F)P(=O)(O)O)c(Br)c2)cc1 [Compound 41, 4-{3-[3-Bromo-4-(difluoro-phosphono-methyl)-benzyl]-2-oxo-2,3-dihydro-1H-imidazol-4-yl}-benzoic acid methyl ester]
Second: CCCn1cc(-c2ccc(C(=O)OC)cc2)n(Cc2ccc(C(F)(F)P(=O)(O)O)c(Br)c2)c1=O [Compound 48, 4-{3-[3-Bromo-4-(difluoro-phosphono-methyl)-benzyl]-2-oxo-1-propyl-2,3-dihydro-1H-imidazol-4-yl}-benzoic acid methyl ester]
The IC50 of the first is higher: 0.25 to 2.5 µM for the first, 0.1 to 0.249 µM for the second.

First: O=c1n(Cc2ccc(C(F)(F)P(=O)(O)O)c(Br)c2)ccn1-c1ccccc1 [Compound 43, {[2-Bromo-4-(2-oxo-3-phenyl-2,3-dihydro-imidazol-1-ylmethyl)-phenyl]-difluoro-methyl}-phosphonic acid]
Second: COC(=O)/C=C/c1ccc(-c2cn(C3CC3)c(=O)n2Cc2ccc(C(F)(F)P(=O)(O)O)c(Br)c2)cc1 [Compound 45, 3-(4-{3-[3-Bromo-4-(difluoro-phosphono-methyl)-benzyl]-1-cyclopropyl-2-oxo-2,3-dihydro-1H-imidazol-4-yl}-phenyl)-acrylic acid methyl ester]
The IC50 of the first is higher: 2.5 to 25 µM for the first, under 0.099 µM for the second. The second is the more potent here.
